{
  "source": "patent US9211310B2",
  "about": "“Use of a Chinese medicine composition in preparing medicaments for treating secondary prevention of myocardial infarction” (TASLY PHARMACEUTICAL GROUP CO., LTD, priority 2010, dated 2015)",
  "system": "patients after acute myocardial infarction",
  "test": "Life quality, Seattle Angina Questionnaire (SAQ), same clinical trial",
  "assay_type": "in vivo, human",
  "settings": "FAS",
  "excerpt": "3508 patients who were in accordance with the diagnostic standards of AMI for 28 days to 2 years and differentiated as Qi deficiency and blood stagnation syndrome by TCM were studied. 0.5 g Chinese medicine composition prepared by the method of EXAMPLE 1 (Coded as QSYQ) was administrated half an hour after meal, 3 times per day.\nThere were 19 questions in the Seattle angina questionnaire (SAQ), including 5 parts: physical limitation (PL), anginal stability (AS), anginal frequency (AF), treatment satisfaction (TS) and disease perception (DP). After being given necessary explanation by doctors, the questions were answered independently by patients.\nThey included the overall survival time, angina pectoris score, TCM symptom score and life quality score, where angina pectoris score, TCM symptom score and life quality score were evaluated at randomization, in 1st, 3rd, 6th, 9th, 12th month after treatment and 18th month after follow-up.\nAll evaluation results of SAQ were described during the period of observation, and Wilcoxon rank sum test was used for inter-group comparison.\nThe evaluation results in the SAQ were depicted in different observations, and inter-group comparison was tested by Wilcoxon Rank-sum test.",
  "data": [
    {"smiles": "CC(=O)Oc1ccccc1C(=O)O", "note": "[Control group, aspirine]", "values": [
      {"measurement": "SAQ Question 1-2 Moderately limited, number of patients", "setting": "1 month after treatment", "value": 14},
      {"measurement": "SAQ Question 1-2 Moderately limited, percent of patients", "setting": "1 month after treatment", "value": "(0.80%)"},
      {"measurement": "SAQ Question 1-2 Not limited, number of patients", "setting": "1 month after treatment", "value": 1575},
      {"measurement": "SAQ Question 1-2 Not limited, percent of patients", "setting": "1 month after treatment", "value": "(90.36%)"},
      {"measurement": "SAQ Question 1-2 Other reasons, number of patients", "setting": "1 month after treatment", "value": 6},
      {"measurement": "SAQ Question 1-2 Other reasons, percent of patients", "setting": "1 month after treatment", "value": "(0.34%)"},
      {"measurement": "SAQ Question 1-2 Severely limited, number of patients", "setting": "1 month after treatment", "value": 0},
      {"measurement": "SAQ Question 1-2 Severely limited, percent of patients", "setting": "1 month after treatment", "value": "(0.00%)"},
      {"measurement": "SAQ Question 1-2 Slightly limited, percent of patients", "setting": "1 month after treatment", "value": "(6.66%)"},
      {"measurement": "SAQ Question 1-6: Mildly limited, patients (%)", "setting": "1 month after treatment", "value": "(18.54%)"},
      {"measurement": "SAQ Question 1-6: Moderately limited, patients (%)", "setting": "1 month after treatment", "value": "(14.85%)"},
      {"measurement": "SAQ Question 1-6: Not limited, patients (%)", "setting": "1 month after treatment", "value": "(29.59%)"},
      {"measurement": "SAQ Question 1-6: Other reasons, patients (%)", "setting": "1 month after treatment", "value": "(0.81%)"},
      {"measurement": "SAQ Question 1-6: Severely limited, patients (%)", "setting": "1 month after treatment", "value": "(5.18%)"},
      {"measurement": "SAQ Question 1-6: Slightly limited, patients (%)", "setting": "1 month after treatment", "value": "(31.03%)"},
      {"measurement": "SAQ Question 1-7: Mildly limited, patients (%)", "setting": "1 month after treatment", "value": "(23.73%)"},
      {"measurement": "SAQ Question 1-7: Moderately limited, patients (%)", "setting": "1 month after treatment", "value": "(17.45%)"},
      {"measurement": "SAQ Question 1-7: Not limited, patients (%)", "setting": "1 month after treatment", "value": "(12.86%)"},
      {"measurement": "SAQ Question 1-7: Other reasons, patients (%)", "setting": "1 month after treatment", "value": "(2.85%)"},
      {"measurement": "SAQ Question 1-7: Severely limited, patients (%)", "setting": "1 month after treatment", "value": "(17.68%)"},
      {"measurement": "SAQ Question 1-7: Slightly limited, patients (%)", "setting": "1 month after treatment", "value": "(25.42%)"},
      {"measurement": "SAQ Question 1-8: Mildly limited, patients (%)", "setting": "1 month after treatment", "value": "(24.13%)"},
      {"measurement": "SAQ Question 1-8: Moderately limited, patients (%)", "setting": "1 month after treatment", "value": "(20.52%)"},
      {"measurement": "SAQ Question 1-8: Not limited, patients (%)", "setting": "1 month after treatment", "value": "(9.01%)"},
      {"measurement": "SAQ Question 1-8: Other reasons, patients (%)", "setting": "1 month after treatment", "value": "(2.79%)"},
      {"measurement": "SAQ Question 1-8: Severely limited, patients (%)", "setting": "1 month after treatment", "value": "(22.27%)"},
      {"measurement": "SAQ Question 1-8: Slightly limited, patients (%)", "setting": "1 month after treatment", "value": "(21.28%)"},
      {"measurement": "8th question: Dissatisfied, patients (%)", "setting": "3 months after treatment", "value": "(0.17%)"},
      {"measurement": "8th question: Highly satisfied, patients (%)", "setting": "3 months after treatment", "value": "(19.09%)"},
      {"measurement": "8th question: Mostly dissatisfied, patients (%)", "setting": "3 months after treatment", "value": "(3.10%)"},
      {"measurement": "8th question: Mostly satisfied, patients (%)", "setting": "3 months after treatment", "value": "(52.81%)"},
      {"measurement": "8th question: Partly satisfied, patients (%)", "setting": "3 months after treatment", "value": "(24.83%)"},
      {"measurement": "9th question: Few, patients (%)", "setting": "3 months after treatment", "value": "(31.88%)"},
      {"measurement": "9th question: Mild, patients (%)", "setting": "3 months after treatment", "value": "(33.54%)"},
      {"measurement": "9th question: Moderate, patients (%)", "setting": "3 months after treatment", "value": "(15.60%)"},
      {"measurement": "9th question: Severe, patients (%)", "setting": "3 months after treatment", "value": "(1.49%)"},
      {"measurement": "9th question: Uneffective, patients (%)", "setting": "3 months after treatment", "value": "(17.49%)"},
      {"measurement": "10th question: Dissatisfied, patients (%)", "setting": "3 months after treatment", "value": "(21.33%)"},
      {"measurement": "10th question: Highly satisfied, patients (%)", "setting": "3 months after treatment", "value": "(4.70%)"},
      {"measurement": "10th question: Mostly dissatisfied, patients (%)", "setting": "3 months after treatment", "value": "(22.19%)"},
      {"measurement": "10th question: Mostly satisfied, patients (%)", "setting": "3 months after treatment", "value": "(24.20%)"},
      {"measurement": "10th question: Partly satisfied, patients (%)", "setting": "3 months after treatment", "value": "(27.58%)"},
      {"measurement": "11th question: Continuously worried, patients (%)", "setting": "3 months after treatment", "value": "(5.39%)"},
      {"measurement": "11th question: No worried, patients (%)", "setting": "3 months after treatment", "value": "(4.87%)"},
      {"measurement": "11th question: Occasionally worried, patients (%)", "setting": "3 months after treatment", "value": "(40.94%)"},
      {"measurement": "11th question: Often worried, patients (%)", "setting": "3 months after treatment", "value": "(18.29%)"},
      {"measurement": "11th question: Seldom worried, patients (%)", "setting": "3 months after treatment", "value": "(30.50%)"},
      {"measurement": "SAQ 4th question, 1-2 times per week: % of patients", "setting": "3 months after treatment", "value": "(16.69%)"},
      {"measurement": "SAQ 4th question, 1-2 times per week: number of patients", "setting": "3 months after treatment", "value": 291},
      {"measurement": "SAQ 4th question, 1-3 times per day: % of patients", "setting": "3 months after treatment", "value": "(5.56%)"},
      {"measurement": "SAQ 4th question, 1-3 times per day: number of patients", "setting": "3 months after treatment", "value": 97},
      {"measurement": "SAQ 4th question, <1 time per week: % of patients", "setting": "3 months after treatment", "value": "(11.47%)"},
      {"measurement": "SAQ 4th question, <1 time per week: number of patients", "setting": "3 months after treatment", "value": 200},
      {"measurement": "SAQ 4th question, Not used: % of patients", "setting": "3 months after treatment", "value": "(55.50%)"},
      {"measurement": "SAQ 4th question, Not used: number of patients", "setting": "3 months after treatment", "value": 968},
      {"measurement": "SAQ 4th question, ≧3 times per week: % of patients", "setting": "3 months after treatment", "value": "(10.72%)"},
      {"measurement": "SAQ 4th question, ≧3 times per week: number of patients", "setting": "3 months after treatment", "value": 187},
      {"measurement": "SAQ 4th question, ≧4 times per day: % of patients", "setting": "3 months after treatment", "value": "(0.06%)"},
      {"measurement": "SAQ 4th question, ≧4 times per day: number of patients", "setting": "3 months after treatment", "value": 1},
      {"measurement": "SAQ 5th question, Few: % of patients", "setting": "3 months after treatment", "value": "(24.60%)"},
      {"measurement": "SAQ 5th question, Few: number of patients", "setting": "3 months after treatment", "value": 429},
      {"measurement": "SAQ 5th question, Mild: % of patients", "setting": "3 months after treatment", "value": "(26.26%)"},
      {"measurement": "SAQ 5th question, Mild: number of patients", "setting": "3 months after treatment", "value": 458},
      {"measurement": "SAQ 5th question, Moderate: % of patients", "setting": "3 months after treatment", "value": "(15.65%)"},
      {"measurement": "SAQ 5th question, Moderate: number of patients", "setting": "3 months after treatment", "value": 273},
      {"measurement": "SAQ 5th question, None: % of patients", "setting": "3 months after treatment", "value": "(27.41%)"},
      {"measurement": "SAQ 5th question, None: number of patients", "setting": "3 months after treatment", "value": 478},
      {"measurement": "SAQ 5th question, Not medicated by doctors: % of patients", "setting": "3 months after treatment", "value": "(4.36%)"},
      {"measurement": "SAQ 5th question, Not medicated by doctors: number of patients", "setting": "3 months after treatment", "value": 76},
      {"measurement": "SAQ 5th question, Severe: % of patients", "setting": "3 months after treatment", "value": "(1.72%)"},
      {"measurement": "SAQ 5th question, Severe: number of patients", "setting": "3 months after treatment", "value": 30},
      {"measurement": "SAQ 6th question, Dissatisfied: % of patients", "setting": "3 months after treatment", "value": "(0.23%)"},
      {"measurement": "SAQ 6th question, Dissatisfied: number of patients", "setting": "3 months after treatment", "value": 4},
      {"measurement": "SAQ 6th question, Highly satisfied: % of patients", "setting": "3 months after treatment", "value": "(19.61%)"},
      {"measurement": "SAQ 6th question, Highly satisfied: number of patients", "setting": "3 months after treatment", "value": 342},
      {"measurement": "SAQ 6th question, Mostly dissatisfied: % of patients", "setting": "3 months after treatment", "value": "(2.64%)"},
      {"measurement": "SAQ 6th question, Mostly dissatisfied: number of patients", "setting": "3 months after treatment", "value": 46}
    ]}
  ]
}
